Experimental data from ChEMBL document CHEMBL3992481 (2016).
In brackets after ≈: the same amount, converted by molar mass. Activity calls are given as the source filed them. The calls are words filed in the database; no cut-off is given here.

Tests used:
[1] = system: Mycobacterium tuberculosis; experiment: Antitubercular activity against Mycobacterium tuberculosis H37Rv assessed as cell growth inhibition by microbroth dilution assay; format: functional
[2] = system: Mycobacterium tuberculosis H37Rv; experiment: Inhibition of lipase in Mycobacterium tuberculosis H37Rv assessed as cell growth inhibition after 7 days by resazurin assay
[3] = target: T1, Putative acetyl-hydrolase LipR (Mycobacterium tuberculosis (strain ATCC 25618 / H37Rv)) (UniProt P9WK85); experiment: Binding affinity to N-terminal His6-tagged Mycobacterium tuberculosis H37Rv ATCC 25618 lipase-R at 30 uM after 30 mins by RhN3 staining based fluorescence assay
T1 sequence (whole entry): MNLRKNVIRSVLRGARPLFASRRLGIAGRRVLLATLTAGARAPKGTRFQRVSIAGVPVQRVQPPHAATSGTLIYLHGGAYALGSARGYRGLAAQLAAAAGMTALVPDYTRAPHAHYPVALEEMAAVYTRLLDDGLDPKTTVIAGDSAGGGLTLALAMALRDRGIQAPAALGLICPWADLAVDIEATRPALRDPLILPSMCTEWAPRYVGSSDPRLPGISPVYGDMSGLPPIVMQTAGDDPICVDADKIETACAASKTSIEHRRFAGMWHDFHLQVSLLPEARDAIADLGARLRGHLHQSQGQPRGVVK

[4] = system: Mycobacterium tuberculosis H37Rv; experiment: Inhibition of lipase in Mycobacterium tuberculosis H37Rv infected in human monocyte derived macrophages assessed as inhibition of bacterial growth treated for 7 days starting from 4 day post infection relative to control
[5] = target: T2, Carboxylic ester hydrolase (Mycobacterium tuberculosis (strain ATCC 25618 / H37Rv)) (UniProt O53488); experiment: Competitive binding affinity to Mycobacterium tuberculosis H37Rv ATCC 25618 lipase-T at 60 uM preincubated for 60 mins followed by La-1 probe addition measured after 30 mins by ABPP method
T2 sequence (whole entry): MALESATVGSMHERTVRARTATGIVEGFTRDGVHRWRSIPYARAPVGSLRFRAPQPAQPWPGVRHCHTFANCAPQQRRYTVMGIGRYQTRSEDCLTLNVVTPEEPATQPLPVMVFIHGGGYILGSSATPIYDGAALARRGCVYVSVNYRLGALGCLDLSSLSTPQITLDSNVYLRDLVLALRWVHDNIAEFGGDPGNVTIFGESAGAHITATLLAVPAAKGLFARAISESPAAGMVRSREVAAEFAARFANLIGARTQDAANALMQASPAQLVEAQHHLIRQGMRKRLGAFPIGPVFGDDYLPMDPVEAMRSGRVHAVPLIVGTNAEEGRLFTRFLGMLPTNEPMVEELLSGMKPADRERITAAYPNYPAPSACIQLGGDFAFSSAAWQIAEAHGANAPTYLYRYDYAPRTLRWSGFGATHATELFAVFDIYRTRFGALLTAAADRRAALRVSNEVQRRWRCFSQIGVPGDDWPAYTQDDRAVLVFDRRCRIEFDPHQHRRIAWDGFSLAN

[6] = target: T3, Probable carboxylic ester hydrolase LipM (Mycobacterium tuberculosis (strain ATCC 25618 / H37Rv)) (UniProt Q50681); experiment: Competitive binding affinity to Mycobacterium tuberculosis H37Rv ATCC 25618 lipase-M at 60 uM preincubated for 60 mins followed by La-1 probe addition measured after 30 mins by ABPP method
T3 sequence (whole entry): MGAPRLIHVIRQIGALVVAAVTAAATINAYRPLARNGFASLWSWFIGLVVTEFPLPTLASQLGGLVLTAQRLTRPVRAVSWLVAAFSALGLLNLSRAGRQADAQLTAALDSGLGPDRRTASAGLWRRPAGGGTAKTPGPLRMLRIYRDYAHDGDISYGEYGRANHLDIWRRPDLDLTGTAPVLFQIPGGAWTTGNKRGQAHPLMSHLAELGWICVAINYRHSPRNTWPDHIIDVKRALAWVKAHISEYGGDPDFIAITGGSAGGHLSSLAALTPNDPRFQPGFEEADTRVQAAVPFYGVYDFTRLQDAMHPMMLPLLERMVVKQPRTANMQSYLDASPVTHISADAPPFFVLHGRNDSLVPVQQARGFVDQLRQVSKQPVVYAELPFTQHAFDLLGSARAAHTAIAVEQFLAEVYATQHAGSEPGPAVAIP

[7] = target: T1, Putative acetyl-hydrolase LipR (Mycobacterium tuberculosis (strain ATCC 25618 / H37Rv)); experiment: Competitive binding affinity to Mycobacterium tuberculosis H37Rv ATCC 25618 lipaseR at 60 uM preincubated for 60 mins followed by La-1 probe addition measured after 30 mins by ABPP method
[8] = target: T4, Carboxylic ester hydrolase LipN (Mycobacterium tuberculosis (strain ATCC 25618 / H37Rv)) (UniProt P95125); experiment: Competitive binding affinity to Mycobacterium tuberculosis H37Rv ATCC 25618 lipaseN at 60 uM preincubated for 60 mins followed by La-1 probe addition measured after 30 mins by ABPP method
T4 sequence (whole entry): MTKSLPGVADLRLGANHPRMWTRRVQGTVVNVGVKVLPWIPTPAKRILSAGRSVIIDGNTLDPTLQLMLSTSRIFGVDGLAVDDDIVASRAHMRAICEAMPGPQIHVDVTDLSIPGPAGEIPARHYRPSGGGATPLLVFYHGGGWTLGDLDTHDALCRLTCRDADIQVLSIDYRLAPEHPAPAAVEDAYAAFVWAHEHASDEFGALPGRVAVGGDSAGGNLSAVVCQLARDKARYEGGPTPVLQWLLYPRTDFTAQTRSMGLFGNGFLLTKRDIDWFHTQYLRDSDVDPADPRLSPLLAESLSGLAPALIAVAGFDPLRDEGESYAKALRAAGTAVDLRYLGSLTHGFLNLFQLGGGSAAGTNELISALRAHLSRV

[9] = system: Mycobacterium tuberculosis H37Rv; experiment: Inhibition of lipase in Mycobacterium tuberculosis H37Rv expressing GFP assessed as cell growth inhibition at 4 uM by fluorescence assay
[10] = target: T5, Probable esterase LipO (Mycobacterium tuberculosis (strain ATCC 25618 / H37Rv)) (UniProt O06832); experiment: Competitive binding affinity to Mycobacterium tuberculosis H37Rv ATCC 25618 lipase-O at 60 uM preincubated for 60 mins followed by La-1 probe addition measured after 30 mins by ABPP method
T5 sequence (whole entry): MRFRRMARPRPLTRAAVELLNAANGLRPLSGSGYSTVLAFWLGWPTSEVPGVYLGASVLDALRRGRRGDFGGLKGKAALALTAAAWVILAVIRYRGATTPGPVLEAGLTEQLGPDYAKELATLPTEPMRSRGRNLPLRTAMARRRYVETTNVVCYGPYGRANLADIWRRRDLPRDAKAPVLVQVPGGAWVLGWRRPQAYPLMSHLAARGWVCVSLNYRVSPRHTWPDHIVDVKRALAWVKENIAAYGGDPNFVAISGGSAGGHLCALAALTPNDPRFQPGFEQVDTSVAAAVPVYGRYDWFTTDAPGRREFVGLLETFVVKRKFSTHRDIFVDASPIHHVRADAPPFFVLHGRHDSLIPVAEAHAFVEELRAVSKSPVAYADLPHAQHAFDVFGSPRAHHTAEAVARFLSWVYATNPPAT

[11] = target: T6, Esterase LipI (Mycobacterium tuberculosis (strain ATCC 25618 / H37Rv)) (UniProt P71668); experiment: Competitive binding affinity to Mycobacterium tuberculosis H37Rv ATCC 25618 lipase-I at 60 uM preincubated for 60 mins followed by La-1 probe addition measured after 30 mins by ABPP method
T6 sequence (whole entry): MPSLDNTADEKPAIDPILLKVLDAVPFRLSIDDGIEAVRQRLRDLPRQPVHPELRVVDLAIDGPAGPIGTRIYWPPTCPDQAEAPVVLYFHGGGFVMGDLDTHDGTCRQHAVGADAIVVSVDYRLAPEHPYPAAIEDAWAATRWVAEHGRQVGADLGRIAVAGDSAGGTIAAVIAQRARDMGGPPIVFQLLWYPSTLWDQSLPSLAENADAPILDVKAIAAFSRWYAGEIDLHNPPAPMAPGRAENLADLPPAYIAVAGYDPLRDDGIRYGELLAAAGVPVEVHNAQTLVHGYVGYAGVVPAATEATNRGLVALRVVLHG

[12] = system: Mycobacterium tuberculosis H37Rv; experiment: Ratio of MIC for inhibition of lipase in Mycobacterium tuberculosis H37Rv assessed as cell growth inhibition in absence of vancomycin to MIC for inhibition of lipase in Mycobacterium tuberculosis H37Rv assessed as cell growth inhibition in presence of vancomycin
[13] = target: T7, Probable lipase/esterase LipG (Mycobacterium tuberculosis (strain ATCC 25618 / H37Rv)) (UniProt P96935); experiment: Competitive binding affinity to Mycobacterium tuberculosis H37Rv ATCC 25618 lipase-G at 60 uM preincubated for 60 mins followed by La-1 probe addition measured after 30 mins by ABPP method
T7 sequence (whole entry): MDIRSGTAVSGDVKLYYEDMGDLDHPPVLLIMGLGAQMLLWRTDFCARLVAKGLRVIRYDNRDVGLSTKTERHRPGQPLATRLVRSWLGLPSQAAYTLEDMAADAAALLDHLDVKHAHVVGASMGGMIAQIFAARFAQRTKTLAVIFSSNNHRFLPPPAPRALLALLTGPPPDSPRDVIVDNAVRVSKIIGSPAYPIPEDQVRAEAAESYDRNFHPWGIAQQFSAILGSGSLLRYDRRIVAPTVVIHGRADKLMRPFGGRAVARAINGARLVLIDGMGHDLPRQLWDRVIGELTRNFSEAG

[14] = system: Mycobacterium tuberculosis H37Rv; experiment: Ratio of MIC for inhibition of lipase in Mycobacterium tuberculosis H37Rv assessed as cell growth inhibition in absence of lalistat to MIC for inhibition of lipase in Mycobacterium tuberculosis H37Rv assessed as cell growth inhibition in presence of lalistat
[15] = system: Mycobacterium tuberculosis; experiment: Antitubercular activity against Mycobacterium tuberculosis H37Rv; format: functional

SMILES: CO[C@H]1/C=C/O[C@@]2(C)Oc3c(C)c(O)c4c(O)c(c(/C=N/N5CCN(C)CC5)c(O)c4c3C2=O)NC(=O)/C(C)=C\C=C\[C@H](C)[C@H](O)[C@@H](C)[C@@H](O)[C@@H](C)[C@H](OC(C)=O)[C@@H]1C [RIFAMPIN]
- MIC [1]: 0.04 to 1 µM

SMILES: C#CC1CCN(C(=O)Oc2nsnc2N2CCCCC2)CC1
- growth inhibition (GI) [2]: Active
- Activity [3]: Active

SMILES: O=C(Oc1nsnc1N1CCCCC1)N1CCCCC1
- growth inhibition (GI) [4]: 55%
- Activity [5]: Active
- Activity [6]: Active
- Activity [7]: Active
- Activity [8]: Active
- growth inhibition (GI) [9]: Active
- Activity [10]: Active
- MIC [2]: 25 to 50 µM (≈ 7.41 to 14.8 µg/mL)
- Activity [11]: Active
- Ratio [12]: 4
- Activity [13]: Active

SMILES: CN[C@H](CC(C)C)C(=O)N[C@H]1C(=O)N[C@@H](CC(N)=O)C(=O)N[C@H]2C(=O)N[C@H]3C(=O)N[C@H](C(=O)N[C@H](C(=O)O)c4cc(O)cc(O)c4-c4cc3ccc4O)[C@H](O)c3ccc(c(Cl)c3)Oc3cc2cc(c3O[C@@H]2O[C@H](CO)[C@@H](O)[C@H](O)[C@H]2O[C@H]2C[C@](C)(N)[C@H](O)[C@H](C)O2)Oc2ccc(cc2Cl)[C@H]1O
- Ratio [14]: 16

SMILES: NNC(=O)c1ccncc1 [ISONIAZID]
- MIC [1]: 0.04 to 1 µM

SMILES: CCCCCCCCCCC[C@@H](C[C@@H]1OC(=O)[C@H]1CCCCCC)OC(=O)[C@H](CC(C)C)NC=O [ORLISTAT]
- MIC [15]: 30 µM (≈ 14.9 µg/mL)
